Results reported in patent publication US20250114486A1, “MARKED FATTY ACID DERIVATIVE, PRECURSOR COMPOUND THEREOF, AND USE THEREOF IN CONTRAST AGENT” (BEIJING NORMAL UNIVERSITY, priority 2022, published 2025).

Experiment: In vivo biodistribution of radioactive ^99mTc complexes in female SD rats
Design: species or system female Sprague-Dawley (SD) rats
Settings: for Biodistribution: Large Intestine / Biodistribution: Small Intestine / Biodistribution: Stomach: unit % ID
Outline: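 Fasted female SD rats (n=3 per time point) received 200 μL of 99mTc complex in saline with 10% ethanol (about 250-350 μCi/mL) by tail vein. Organs and blood collected, weighed and counted at 15, 30, 60, 120 and 240 min; uptake given as % ID/g (% ID for intestines and stomach), mean±SD.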

## COC(C)(C)C[N+]#[C][99Tc-5]([C]#[N+]CC(C)(C)OC)([C]#[N+]CC(C)(C)OC)([C]#[N+]CC(C)(C)OC)([C]#[N+]CC(C)(C)OC)[C]#[N+]CC(C)(C)OCCCCCSCCCCC(=O)O [^99mTc complex 80]
15 min post-injection
  Biodistribution: Blood: 0.018 ± 0.003 ID %/g
  Biodistribution: Bone: 0.11 ± 0.05 ID %/g
  Biodistribution: Brain: 0.008 ± 0.004 ID %/g
  Biodistribution: Heart: 0.94 ± 0.16 ID %/g
  Biodistribution: Kidney: 2.43 ± 0.10 ID %/g
  Biodistribution: Liver: 0.49 ± 0.03 ID %/g
  Biodistribution: Lungs: 0.14 ± 0.04 ID %/g
  Biodistribution: Muscle: 0.14 ± 0.04 ID %/g
  Biodistribution: Spleen: 0.23 ± 0.06 ID %/g
  Heart-to-Blood ratio: 53.37 ± 6.93
  Heart-to-Liver ratio: 1.91 ± 0.40
  Heart-to-Lungs ratio: 7.04 ± 1.69
  absolute myocardial uptake value: 0.94±0.16 % ID/g
  Biodistribution: Large Intestine: 5.34 ± 1.37 % ID
  Biodistribution: Small Intestine: 8.49 ± 0.85 % ID
  Biodistribution: Stomach: 0.27 ± 0.09 % ID
30 min post-injection
  Biodistribution: Blood: 0.026 ± 0.003 ID %/g
  Biodistribution: Bone: 0.10 ± 0.01 ID %/g
  Biodistribution: Brain: 0.010 ± 0.003 ID %/g
  Biodistribution: Heart: 1.42 ± 0.32 ID %/g
  Biodistribution: Kidney: 4.66 ± 0.51 ID %/g
  Biodistribution: Liver: 1.01 ± 0.29 ID %/g
  Biodistribution: Lungs: 0.32 ± 0.04 ID %/g
  Biodistribution: Muscle: 0.22 ± 0.07 ID %/g
  Biodistribution: Spleen: 0.26 ± 0.06 ID %/g
  Heart-to-Blood ratio: 54.80±11.86
  Heart-to-Liver ratio: 1.48 ± 0.45
  Heart-to-Lungs ratio: 4.40 ± 0.64
  absolute myocardial uptake value: 1.42±0.32 % ID/g
  Biodistribution: Large Intestine: 6.69 ± 0.68 % ID
  Biodistribution: Small Intestine: 10.71 ± 1.89 % ID
  Biodistribution: Stomach: 0.53 ± 0.07 % ID
60 min post-injection
  Biodistribution: Blood: 0.013 ± 0.003 ID %/g
  Biodistribution: Bone: 0.064 ± 0.004 ID %/g
  Biodistribution: Brain: 0.011 ± 0.005 ID %/g
  Biodistribution: Heart: 2.06 ± 0.06 ID %/g
  Biodistribution: Kidney: 2.39 ± 0.58 ID %/g
  Biodistribution: Liver: 0.33 ± 0.09 ID %/g
  Biodistribution: Lungs: 0.22 ± 0.03 ID %/g
  Biodistribution: Muscle: 0.48 ± 0.06 ID %/g
  Biodistribution: Spleen: 0.16 ± 0.06 ID %/g
  Heart-to-Blood ratio: 164.01±43.51
  Heart-to-Liver ratio: 6.43±1.85
  Heart-to-Lungs ratio: 9.48±1.39
  absolute myocardial uptake value: 2.06 0.06 % ID/g
  Biodistribution: Large Intestine: 12.36 ± 2.55 % ID
  Biodistribution: Small Intestine: 6.75 ± 1.89 % ID
  Biodistribution: Stomach: 0.56 ± 0.27 % ID
120 min post-injection
  Biodistribution: Blood: 0.009 ± 0.001 ID %/g
  Biodistribution: Bone: 0.07 ± 0.02 ID %/g
  Biodistribution: Brain: 0.010 ± 0.005 ID %/g
  Biodistribution: Heart: 1.73 ± 0.09 ID %/g
  Biodistribution: Kidney: 1.30 ± 0.41 ID %/g
  Biodistribution: Liver: 0.18 ± 0.01 ID %/g
  Biodistribution: Lungs: 0.16 ± 0.01 ID %/g
  Biodistribution: Muscle: 0.34 ± 0.03 ID %/g
  Biodistribution: Spleen: 0.15 ± 0.01 ID %/g
  Heart-to-Blood ratio: 197.36±32.29
  Heart-to-Liver ratio: 9.68±0.76
  Heart-to-Lungs ratio: 11.40±3.06
  absolute myocardial uptake value: 1.73±0.09 % ID/g
